From US11434472B2, “Agent for removing undifferentiated iPS cells” (Sumitomo Pharma Co., Ltd., priority 2016, dated 2022)

Experiments:
Type in all cases: cell-based
[1] = system: HCT-116 cells; assay: Test for inhibiting sphere-forming ability of cancer cells; settings: Homo sapiens, 96 h, non-adherent serum-free sphere culture, 4 days, CellTiter-Glo, read-out: IC50 (Sphere IC50 value; concentration for 50% inhibition of cell proliferation)
Description: The reliable methods established for measuring the self-renewal ability of cells which is one of the CSC's properties include a method for measuring the sphere-forming ability of cancer cells in non-adherent condition in the absence of serum (Cancer Res 65, 5506-5511 (2005)). HCT-116 cells were available from the American Type Culture Collection (ATCC). HCT-116 cells were cultured at 37° C. and 5% CO2 using the McCoy's 5a medium containing 10% fetal bovine serum (FBS), 100 U/ml penicillin, and 100 μg/ml streptomycin. HCT-116 cells were seeded in a 384 Well Black Clear Bottom Ultra-Low Attachment Microplate (Corning Cat. No. 3827) in an amount of 350-800 cells/well using the DMEM/F12 medium containing 2% B27 supplement (GIBCO), 20 ng/mL epidermal growth factor (EGF) (peprotech), 10 ng/mL basic fibroblast growth factor (bFGF) (peprotech), 5 μg/mL insulin (Sigma), and 1% penicillin/streptomycin. The test compounds were added into each well to adjust the final concentration of DMSO to 0.1%, and the cells were cultured for 4 days. The number of viable cells in each well was then measured with CeilTiter-Glo® Luminescent Cell Viability Assay (Promega) to calculate the concentration of each test compound for 50% inhibition of cell proliferation (Sphere IC50 value; μmol/L).
The experiment of Test Example 1 was performed for the compound of each Example. The concentration of each test compound for 50% inhibition of cell proliferation (Sphere IC50 value; μmol/L) is shown in the following Table.

[2] = system: human iPS cells; assay: Evaluation of cytotoxic activity against iPS cells (DAPI nuclear staining, DAPI positive area); settings: 24 hours
Description: Human iPS cells were cultured under feeder-free condition according to the method described in Scientific Reports, 4, 3594 (2014). The StemFit medium (AKO3N, Ajinomoto) was used as feeder-free medium, and Laminin511-E8 (Nippi) was used as feeder-free scaffold.
The subconfluent human iPS cells were washed with PBS and dispersed into single cells using TrypLE Select (Life Technologies). The human iPS cells were then seeded in a plastic culture dish coated with Laminin511-E8, and cultured under feeder-free conditions at 37° C. and 5% CO2 using the StemFit medium in the presence of Y27632 (ROCK inhibitory compound, 10 μmol/L). A 96-well plate (BD, for cell culture, culture area 0.35 cm^2) was used as the plastic culture dish, and the number of plated cells for the human iPS cells dispersed into single cells was set to 0.03×10^4. The medium was changed to Y27632-free StemFit medium 1 day after the seeding. Thereafter, the medium was changed to the Y27632-free StemFit medium once in 1 to 2 days. The cells were then cultured until subconfluent (60% of culture area is covered with the cells). To the human iPS cells was added the Stem Fit medium (AK03; Ajinomoto) to adjust the final concentrations of the compounds of Examples 1-2, 10-2, and 22 dissolved in DMSO to 10, 1, 0.1, and 0.01 μmol/L, and the cells were cultured for 24 hours.
After 24 hours, the medium was removed, the obtained cells were each fixed with 4% paraformaldehyde at 4° C. for 15 minutes, PBS solution containing DAPI (Sigma) was added thereto to perform nuclear staining for the cells, and then the cells were observed by inverted fluorescence microscope (Keyence, BIREVO). In addition, the DAPI positive area was calculated using the quantitative software of the microscope.

[3] = system: differentiation-inducing cell aggregates formed from human iPS cells; assay: Effect on differentiation-inducing cell aggregates (Cleaved Caspase-3 immunostaining); settings: 24 hours, aggregates without treatment 19%
Description: Firstly, differentiation-inducing cell aggregates were prepared according to the following procedures.
According to a similar method to that of Test Example 2, the human iPS cells one day before subconfluence were cultured under feeder free conditions using the StemFit medium (AK03; Ajinomoto) in the presence of SB431542 (TGFβ signaling pathway inhibitory compound (TGFβR-i), 5 μmol/L) for 1 day. A 6-well plate (Iwaki, for cell culture, culture area 9.4 cm^2) was used as the plastic culture dish, and the number of plated cells for the human iPS cells dispersed into single cells was set 1.0×10^4. The cells were treated with cell dispersion using TrypLE Select (Life Technologies), and dispersed into single cells by pipetting operation. The cells were then suspended in 100 μl of a serum-free medium at 1.0×10^4 cells per well of a non-cell adhesive 96-well culture plate (PrimeSurface 96V-bottom plate, manufactured by SUMITOMO BAKELITE), and cultured in suspension at 37° C. and 5% CO2. As the serum-free medium (gfCDM+KSR), a serum-free medium which is 1:1 mixture of F-12 medium and IMDM medium supplemented with 10% KSR, 450 μmol/L 1-monothioglycerol, and 1×Chemically defined lipid concentrate was used. At the time of the start of suspension culture (day 0 after the start of suspension culture), Y27632 (final concentration: 20 μmol/L) was added to the medium, and the cells was further cultured using a medium containing Wnt signaling inhibitory compound (IWR-1e, 3 μmol/L).
After culturing at 37° C. and 5% CO2 for 24 hours, the medium was changed to the serum-free medium containing the present compound in a final concentration of 0.1 μmol/L or 1 μmol/L, or DMSO in a concentration equal thereto, and the cells were cultured for additional 24 hours. After 24 hours, the obtained cell aggregates were fixed with 4% paraformaldehyde to prepare frozen sections. […] The immunostained sections were observed by inverted fluorescence microscope (Keyence, BIREVO). In addition, the Cleaved Caspase-3 positive area was calculated using the NIH Image-J software.

Structure (SMILES)	IC50 [1] [nM]	further results
O=C(/C=C/c1cccnc1)Nc1cn(Cc2cccc(Cl)c2)cn1 [Example 9, (2E)-N-(1-(3-Chlorobenzyl)-1H-imidazol-4-yl)-3-(pyridin-3-yl)prop-2-enamide]	890	–
CC(=O)Nc1ccc(/C=C/C(=O)Nc2cn(Cc3cc(F)c(F)c(F)c3)cn2)cc1 [Example 4]	< 10	–
O=C(Nc1nc(CO)cs1)c1cn(Cc2cc(F)c(F)c(F)c2)cn1 [Example 16]	629	–
N#Cc1ccc(/C=C/C(=O)Nc2cn(Cc3cccc(Cl)c3)cn2)cc1OCCO [Example 8]	80	–
COc1ccc(NC(=O)c2cn(Cc3cc(F)c(F)c(F)c3)cn2)cc1OC [Example 14]	210	–
COc1ccc(/C=C/C(=O)Nc2cn(Cc3cccc(Cl)c3)cn2)cc1OCCO [Example 6, (2E)-N-[1-(3-Chlorobenzyl)-1H-imidazol-4-yl]-3-[3-(2-hydroxyethoxy)-4-methoxyphenyl]prop-2-enamide]	60	–
O=C(Nc1cn(Cc2cccc(C(F)(F)F)c2)cn1)c1ccc(CO)nc1 [Example 22, 6-(hydroxymethyl)-N-{1-[3-(trifluoromethyl)benzyl]-1H-imidazol-4-yl}nicotinamide]	–	ratio of viable cells to that of cells without treatment ([2]; 0.1 μmol/L): 51%; ratio of viable cells to that of cells without treatment ([2]; 1 μmol/L): 31%
COc1ccc(C(=O)Nc2cn(Cc3cccc(Cl)c3)cn2)cc1OC.Cl [Example 10-2, N-[1-(3-Chlorobenzyl)-1H-imidazol-4-yl]-3,4-dimethoxybenzamide hydrochloride]	630	ratio of Cleaved Caspase-3 positive area in the cell aggregates ([3]; 1 μmol/L): 26%; ratio of viable cells to that of cells without treatment ([2]; 1 μmol/L): 37%; ratio of viable cells to that of cells without treatment ([2]; 10 μmol/L): 17%
COc1ccc(/C=C/C(=O)Nc2cn(Cc3cccc(C(F)(F)F)c3)cn2)cc1OCCO [Example 7]	90	–
COc1ccc(/C=C/C(=O)Nc2cn(Cc3cc(F)c(F)c(F)c3)cn2)cc1OCCO [Example 5, (E)-3-(3-(2-Hydroxyethoxy)-4-methoxyphenyl)-N-(1-(3,4,5-trifluorobenzyl)-1H-imidazol-4-yl)acrylamide]	60	–
CC(=O)Nc1ccc(/C=C/C(=O)Nc2cn(Cc3cccc(Cl)c3)cn2)cc1 [Example 2]	220	–
COc1ccc(C(=O)Nc2cn(Cc3cc(F)c(F)c(F)c3)cn2)cc1OC [Example 13]	60	–
O=C(COc1ccc(CO)nc1)Nc1cn(Cc2cc(F)c(F)c(F)c2)cn1 [Example 17]	< 10	–
CC(=O)Nc1ccc(/C=C/C(=O)Nc2cn(Cc3cccc(OC(F)(F)F)c3)cn2)cc1 [Example 3]	630	–
CC(=O)Nc1ccc(/C=C/C(=O)Nc2cn(Cc3cccc(C(F)(F)F)c3)cn2)cc1.Cl [Example 1-2, (2E)-3-[4-(Acetylamino)phenyl]-N-(1-[3-(trifluoromethyl)benzyl]-1H-imidazol-4-yl)prop-2-enamide hydrochloride]	–	ratio of Cleaved Caspase-3 positive area in the cell aggregates ([3]; 0.1 μmol/L): 24%; ratio of Cleaved Caspase-3 positive area in the cell aggregates ([3]; 1 μmol/L): 27%; ratio of viable cells to that of cells without treatment ([2]; 0.1 μmol/L): 53%; ratio of viable cells to that of cells without treatment ([2]; 1 μmol/L): 25%; ratio of viable cells to that of cells without treatment ([2]; 10 μmol/L): 14%; concentration at which cytotoxic activity against human iPS cells was found ([2]; tested at 10, 1, 0.1 and 0.01 μmol/L): ≥ 100 nM
